Holding throughout (type): functional
Test [1] concerns Parastagonospora nodorum. The test can be described thus: Fungicidal activity against Phaeosphaeria nodorum inoculated in 24 hr compound-treated plant foliage assessed as disease control at 40 ppm measured after 7 days.
Test [2] has as its system Oculimacula yallundae. The test can be described thus: Fungicidal activity against Oculimacula yallundae inoculated in 24 hr compound-treated plant foliage assessed as disease control at 40 ppm measured after 7 days.
Test [3] has as its system Parastagonospora nodorum. Kind of test: Fungicidal activity against Phaeosphaeria nodorum inoculated in 24 hr compound-treated plant foliage assessed as disease control at 200 ppm measured after 7 days.
In test [4] the test system is Oculimacula yallundae. Kind of test: Fungicidal activity against Oculimacula yallundae inoculated in 24 hr compound-treated plant foliage assessed as disease control at 200 ppm measured after 7 days.
Test [5] deals with Parastagonospora nodorum. Kind of test: Fungicidal activity against Phaeosphaeria nodorum inoculated in 24 hr compound-treated plant foliage assessed as disease control at 20 ppm measured after 7 days.
Test [6] relates to Oculimacula yallundae. Kind of test: Fungicidal activity against Oculimacula yallundae inoculated in 24 hr compound-treated plant foliage assessed as disease control at 20 ppm measured after 7 days.

For the compound `O=C(Nc1c(Cl)cccc1Cl)c1c(-c2ccccc2)nc2n1CCS2(=O)=O`, the Activity is 23% with Parastagonospora nodorum [1] and 9% with Oculimacula yallundae [2].

Turning to `Cc1nc2n(c1C(=O)Nc1c(Cl)cccc1Cl)CCS2(=O)=O`, the Activity with Parastagonospora nodorum [1] was determined as 23%; with Oculimacula yallundae [2] it was 0%.

On to `O=C(Nc1c(Cl)cccc1Cl)c1c(Cl)nc2n1CCS2(=O)=O`, for which the Activity in the test with Parastagonospora nodorum [1] stood at 0%; in the test on Oculimacula yallundae [2] it was 39%.

Consider `Cc1nc2n(c1C(=O)Nc1ccccc1)CCS2(=O)=O`, for which the Activity with Parastagonospora nodorum [3] was determined as 23%; in the test on Oculimacula yallundae [4] it was 54%.

Regarding `Cc1nc2n(c1C(=O)N1CCCCC1)CCS2(=O)=O`, the Activity with Parastagonospora nodorum [3] is 23%; in the test with Oculimacula yallundae [4] it was 0%.

As for `O=C(c1c(Cl)nc2n1CCS2(=O)=O)N1CCOCC1`, the Activity in the test with Parastagonospora nodorum [1] was 23%; with Oculimacula yallundae [2], 0%.

In the case of `C[Si](Cn1cncn1)(c1ccc(F)cc1)c1ccc(F)cc1` [FLUSILAZOLE], the Activity in the test on Parastagonospora nodorum [5] is reported as 99%; in the test on Oculimacula yallundae [6] it was 98%.

`CCNC(=O)c1c(Cl)nc2n1CCS2(=O)=O`: the Activity with Parastagonospora nodorum [1] came out at 23%; in the test with Oculimacula yallundae [2], 39%.

Regarding `O=C(Nc1ccccn1)c1c(Cl)nc2n1CCS2(=O)=O`, the Activity came out at 0% with Parastagonospora nodorum [3] and 100% in the test on Oculimacula yallundae [4].

Take `CN(C(=O)c1c(Cl)nc2n1CCS2(=O)=O)c1ccccc1`: the Activity worked out at 0% in the test with Parastagonospora nodorum [3] and 39% with Oculimacula yallundae [4].

As to `Cc1nc2n(c1C(=O)Nc1ccccn1)CCS2(=O)=O`, the Activity in the test with Parastagonospora nodorum [3] is 0%; with Oculimacula yallundae [4], 100%.

Take `O=C(c1c(Cl)nc2n1CCS2(=O)=O)N1CCCCC1`: the figures for the Activity with Parastagonospora nodorum [3] and with Oculimacula yallundae [4] were 23% and 0%, respectively.
